Laboratory results published in ChEMBL document CHEMBL2440076, “New triarylpyrazoles as broad-spectrum anticancer agents: design, synthesis, and biological evaluation” (Eur J Med Chem, 2013).

Assays:
Type in all cases: functional
[1] = test system: UO-31; test: Growth inhibition of human UO31 cells assessed as cell growth at 10 uM after 48 hrs by sulforhodamine B assay; settings: UO-31, 48 h, read-out: Activity
[2] = test system: SK-MEL-5; test: Growth inhibition of human SK-MEL-5 cells assessed as cell growth at 10 uM after 48 hrs by sulforhodamine B assay; settings: SK-MEL-5, 48 h, read-out: Activity
[3] = test system: SNB-19; test: Growth inhibition of human SNB19 cells assessed as cell growth at 10 uM after 48 hrs by sulforhodamine B assay; settings: SNB-19, 48 h, read-out: Activity
[4] = test system: UACC-62; test: Growth inhibition of human UACC62 cells assessed as cell growth at 10 uM after 48 hrs by sulforhodamine B assay; settings: UACC-62, 48 h, read-out: Activity
[5] = test system: PC-3; test: Growth inhibition of human PC3 cells assessed as cell growth at 10 uM after 48 hrs by sulforhodamine B assay; settings: PC-3, 48 h, read-out: Activity
[6] = test system: HCT-116; test: Growth inhibition of human HCT116 cells assessed as cell growth at 10 uM after 48 hrs by sulforhodamine B assay; settings: HCT-116, 48 h, read-out: Activity
[7] = test system: SK-OV-3; test: Growth inhibition of human SKOV3 cells assessed as cell growth at 10 uM after 48 hrs by sulforhodamine B assay; settings: SK-OV-3, 48 h, read-out: Activity
[8] = test system: 786-0; test: Growth inhibition of human 786-0 cells assessed as cell growth at 10 uM after 48 hrs by sulforhodamine B assay; settings: 786-0, 48 h, read-out: Activity
[9] = test system: SK-MEL-2; test: Growth inhibition of human SK-MEL-2 cells assessed as cell growth at 10 uM after 48 hrs by sulforhodamine B assay; settings: SK-MEL-2, 48 h, read-out: Activity
[10] = Growth inhibition of human Hs 578T cells assessed as cell growth at 10 uM after 48 hrs by sulforhodamine B assay; settings: read-out: Activity
[11] = test system: HL-60(TB); test: Growth inhibition of human HL-60(TB) cells assessed as cell growth at 10 uM after 48 hrs by sulforhodamine B assay; settings: HL-60, 48 h, read-out: Activity
[12] = test system: BT-549; test: Growth inhibition of human BT549 cells assessed as cell growth at 10 uM after 48 hrs by sulforhodamine B assay; settings: BT-549, 48 h, read-out: Activity
[13] = test system: OVCAR-3; test: Growth inhibition of human OVCAR3 cells assessed as cell growth at 10 uM after 48 hrs by sulforhodamine B assay; settings: OVCAR-3, 48 h, read-out: Activity
[14] = test system: SN12C; test: Growth inhibition of human SN12C cells assessed as cell growth at 10 uM after 48 hrs by sulforhodamine B assay; settings: read-out: Activity
[15] = test system: RXF 393; test: Growth inhibition of human RXF393 cells assessed as cell growth at 10 uM after 48 hrs by sulforhodamine B assay; settings: RXF 393, 48 h, read-out: Activity
[16] = test system: A498; test: Growth inhibition of human A498 cells assessed as cell growth at 10 uM after 48 hrs by sulforhodamine B assay; settings: A498, 48 h, read-out: Activity
[17] = test system: UACC-257; test: Growth inhibition of human UACC257 cells assessed as cell growth at 10 uM after 48 hrs by sulforhodamine B assay; settings: UACC-257, 48 h, read-out: Activity
[18] = test system: ACHN; test: Growth inhibition of human ACHN cells assessed as cell growth at 10 uM after 48 hrs by sulforhodamine B assay; settings: read-out: Activity

SMILES	growth at 10 µM [1]	growth at 10 µM [2]	growth at 10 µM [3]	growth at 10 µM [4]	growth at 10 µM [5]	growth at 10 µM [6]	growth at 10 µM [7]	growth at 10 µM [8]	growth at 10 µM [9]	growth at 10 µM [10]	growth at 10 µM [11]	growth at 10 µM [12]	growth at 10 µM [13]	growth at 10 µM [14]	growth at 10 µM [15]	growth at 10 µM [16]	growth at 10 µM [17]	growth at 10 µM [18]
O=C(Nc1cccc(-n2cc(-c3ccncc3)c(-c3ccc(Cl)c(O)c3)n2)c1)c1ccc(Cl)c(C(F)(F)F)c1	81.2%	95.2%	119%	100%	85.7%	100%	102%	108%	93.7%	91.9%	196%	94.5%	95.8%	98.6%	104%	105%	104%	86.6%
O=C(Nc1cccc(-n2cc(-c3ccncc3)c(-c3ccc(Cl)c(O)c3)n2)c1)c1ccccc1	83.1%	59.4%	99.7%	68.3%	50.3%	57.8%	80.1%	76.1%	67.9%	48.4%	167%	83.4%	82.1%	79.3%	0.59%	72.3%	44.2%	53.2%
COc1cc(-c2nn(-c3cccc(NC(=O)Nc4ccccc4)c3)cc2-c2ccncc2)ccc1Cl	56.5%	79.9%	89.5%	86.5%	52.5%	87.2%	97.1%	93.1%	77%	82.7%	91.3%	89.9%	86.4%	86.2%	72.8%	79.7%	84.5%	78.2%
